Patent publication US9738661
Read-outs that look alike come from different tables or passages of the source.

SMILES: COC(=O)[C@@H]1C[C@@H]2CN1C(=O)[C@H](C(C)(C)C)NC(=O)OCCCCCC=Cc1ccccc1C#CCO2.[C-]#[O+].[C-]#[O+].[C-]#[O+].[C-]#[O+].[C-]#[O+].[C-]#[O+].[Co].[Co]
- ring closure, yield of all isomers (from C=CCCCCCOC(=O)N[C@H](C(=O)N1C[C@H](OCC#Cc2ccccc2C=C)C[C@H]1C(=O)OC)C(C)(C)C.[C-]#[O+].[C-]#[O+].[C-]#[O+].[C-]#[O+].[C-]#[O+].[C-]#[O+].[Co].[Co], rcm bond): 34.5%

SMILES: COC(=O)[C@@H]1C[C@@H]2CN1C(=O)[C@H](C(C)(C)C)NC(=O)OCCCCC/C=C/c1cccnc1O2
- ring closure, yield of all isomers (from C=CCCCCCOC(=O)N[C@H](C(=O)N1C[C@H](Oc2ncccc2C=C)C[C@H]1C(=O)OC)C(C)(C)C, rcm bond, Zhan 1b catalyst, DCM, 5.03 mM, 16.0 h): 92.9%

SMILES: C=C1CCCCCOC(=O)N[C@@H](C2CCCCC2)C(=O)N2C[C@@H](C[C@H]2C(=O)OC)Oc2ccc3ccccc3c21
- ring closure, yield of all isomers (from C=CCCCCCOC(=O)N[C@H](C(=O)N1C[C@H](Oc2ccc3ccccc3c2Br)C[C@H]1C(=O)OC)C1CCCCC1, cc_pd bond, PdCl2(dppf)-DCM, EtOH, 50.3 mM, 78.0 °C, 48.0 h): 52.7%

SMILES: COC(=O)[C@@H]1C[C@@H]2CN1C(=O)[C@H](C1CCCC1)NC(=O)O[C@@H]1CCC[C@H]1CCCC=Cc1nc3ccccc3cc1O2 (mixture of isomers)
- ring closure, yield of all isomers (from C=CCCC[C@@H]1CCC[C@H]1OC(=O)N[C@H](C(=O)N1C[C@H](Oc2cc3ccccc3nc2C=C)C[C@H]1C(=O)OC)C1CCCC1, rcm bond, Zhan catalyst, DCE, 10.0 mM, 90.0 °C, 1.5 h): 74%

SMILES: COC(=O)[C@@H]1C[C@@H]2CN1C(=O)[C@H](C(C)(C)C)NC(=O)O[C@@H]1CCC[C@H]1CCCC=Cc1nc3ccc(OC)cc3cc1O2
- ring closure, yield of all isomers (from C=CCCC[C@@H]1CCC[C@H]1OC(=O)N[C@H](C(=O)N1C[C@H](Oc2cc3cc(OC)ccc3nc2C=C)C[C@H]1C(=O)OC)C(C)(C)C, rcm bond, Zhan catalyst, DCE, 16.0 mM, 90.0 °C, 2.0 h): 84%

SMILES: COC(=O)[C@@H]1C[C@@H]2CN1C(=O)[C@H](C(C)(C)C)NC(=O)OCCCCC=CCC1CCCCC1OC(=O)N2 (stereo partly shown)
- ring closure, yield of all isomers (from C=CCCCCOC(=O)N[C@H](C(=O)N1C[C@H](NC(=O)OC2CCCCC2CC=C)C[C@H]1C(=O)OC)C(C)(C)C, rcm bond, Zhan 1a catalyst, DCE, 5.0 mM, 83.0 °C, 1.5 h): 49.8%

SMILES: CCCC[C@@H]1NC(=O)OCCCCC=CCc2ccccc2O[C@@H]2C[C@@H](C(=O)OC)N(C2)C1=O
- ring closure, yield of all isomers (from C=CCCCCOC(=O)N[C@@H](CCCC)C(=O)N1C[C@H](Oc2ccccc2CC=C)C[C@H]1C(=O)OC, rcm bond, Zhan 1a catalyst, DCE, 4.9 mM, 83.0 °C, 2.0 h): 100%
